Results reported in patent US20250250230A1, “HETEROCYCLIC COMPOUND” (TAKEDA PHARMACEUTICAL COMPANY LIMITED, priority 2022, published 2025).

Target: T1, human orexin type 2 receptor (Homo sapiens, UniProt O43614)
T1 construct: expressed in transfected cells
T1 sequence (O43614 1-444): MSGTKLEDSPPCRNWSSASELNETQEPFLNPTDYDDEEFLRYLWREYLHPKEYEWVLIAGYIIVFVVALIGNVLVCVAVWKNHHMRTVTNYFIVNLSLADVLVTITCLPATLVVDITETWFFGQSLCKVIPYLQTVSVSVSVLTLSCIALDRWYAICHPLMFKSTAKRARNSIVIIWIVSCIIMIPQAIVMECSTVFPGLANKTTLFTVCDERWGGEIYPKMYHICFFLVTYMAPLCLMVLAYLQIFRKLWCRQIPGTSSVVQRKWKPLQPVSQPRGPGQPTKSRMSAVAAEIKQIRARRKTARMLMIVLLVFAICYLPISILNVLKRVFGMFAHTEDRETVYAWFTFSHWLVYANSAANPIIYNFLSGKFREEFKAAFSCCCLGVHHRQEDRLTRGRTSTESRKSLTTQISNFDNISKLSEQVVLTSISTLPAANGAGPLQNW
Test: Measurement of orexin type 2 receptor agonist activity (calcium fluorescence, Fluo-4 AM, FDSS)
Type: cell-based
Settings: test compound 3 μM; CHO cells expressing human OX2 receptor; DMSO = 0%, orexin A (human) = 100%
Method in brief: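 CHO-K1 cells stably expressing human OX2R were loaded with Fluo-4 AM (30 min 37 °C, 30 min RT) in HEPES-buffered HBSS with 0.1% BSA and probenecid. Calcium fluorescence was followed on FDSS for 2 min after compound addition; activity normalised to DMSO (0%) and 10 nM orexin A (100%).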

SMILES	OX2R agonist activity (3 μM, %) [%]
CS(=O)(=O)NC12CC1CN(C(=O)C1CC1c1ccccc1-c1c(F)cccc1F)C2 (racemic) [Example 124, a mixture of rac-N-{(1S,5R)-3-[(1R,2R)-2-(2′,6′-difluoro[1,1′-biphenyl]-2-yl)cyclopropane-1-carbonyl]-3-azabicyclo[3.1.0]hexan-1-yl}methanesulfonamide and rac-N-{(1R,5S)-3-[(1R,2R)-2-(2′,6′-difluoro[1,1′-biphenyl]-2-yl)cyclopropane-1-carbonyl]-3-azabicyclo[3.1.0]hexan-1-yl}methanesulfonamide]	104
CN(C)S(=O)(=O)NC[C@H]1CCN1C(=O)[C@@H]1C[C@H]1c1ccccc1-c1c(F)cccc1F [Example 298, N′-({(2R)-1-[(1R,2R)-2-(2′,6′-difluoro[1,1′-biphenyl]-2-yl)cyclopropane-1-carbonyl]azetidin-2-yl}methyl)-N,N-dimethylsulfuric diamide]	100
CS(=O)(=O)NC1CCCN(C(=O)C2CC2c2cnccc2-c2c(F)cccc2F)CC1 (racemic) [Example 206, a mixture of rac-N-[(4R)-1-{(1R,2R)-2-[4-(2,6-difluorophenyl)pyridin-3-yl]cyclopropane-1-carbonyl}azepan-4-yl]methanesulfonamide and rac-N-[(4S)-1-{(1R,2R)-2-[4-(2,6-difluorophenyl)pyridin-3-yl]cyclopropane-1-carbonyl}azepan-4-yl]methanesulfonamide]	87
CN(C)S(=O)(=O)N[C@H]1CCN(C(=O)[C@@H]2C[C@H]2c2ccccc2-c2c(F)cccc2F)C1 [Example 289, N′-{(3S)-1-[(1R,2R)-2-(2′,6′-difluoro[1,1′-biphenyl]-2-yl)cyclopropane-1-carbonyl]pyrrolidin-3-yl}-N,N-dimethylsulfuric diamide]	99
CC1CCN(C(=O)C2CC2c2ccccc2-c2c(F)cccc2F)CCC1NS(C)(=O)=O (racemic) [Example 186]	101
CS(=O)(=O)NC1CCCN(C(=O)C2CC2c2ccc(F)cc2-c2c(F)cccc2F)C1 (racemic) [Example 152, a mixture of rac-N-{(3R)-1-[(1R,2R)-2-(2′,5,6′-trifluoro[1,1′-biphenyl]-2-yl)cyclopropane-1-carbonyl]piperidin-3-yl}methanesulfonamide and rac-N-{(3S)-1-[(1R,2R)-2-(2′,5,6′-trifluoro[1,1′-biphenyl]-2-yl)cyclopropane-1-carbonyl]piperidin-3-yl}methanesulfonamide]	95
O=C([C@@H]1C[C@H]1c1ccccc1-c1c(F)cccc1F)N1CC[C@H](NS(=O)(=O)N2CCC2)C1 [Example 326, N-{(3S)-1-[(1R,2R)-2-(2′,6′-difluoro[1,1′-biphenyl]-2-yl)cyclopropane-1-carbonyl]pyrrolidin-3-yl}azetidine-1-sulfonamide]	89
O=C(C1CC1c1ccccc1-c1c(F)cccc1F)N1CCCCC(NS(=O)(=O)C2CC2)C1 (racemic) [Example 161, a mixture of rac-N-{(3R)-1-[(1R,2R)-2-(2′,6′-difluoro[1,1′-biphenyl]-2-yl)cyclopropane-1-carbonyl]azepan-3-yl}cyclopropanesulfonamide and rac-N-{(3S)-1-[(1R,2R)-2-(2′,6′-difluoro[1,1′-biphenyl]-2-yl)cyclopropane-1-carbonyl]azepan-3-yl}cyclopropanesulfonamide]	99
CC1CCN(C(=O)C2CC2c2ccccc2-c2c(F)cccc2F)CC1NS(C)(=O)=O (racemic) [Example 185, a mixture of rac-N-{(3R,4R)-1-[(1R,2R)-2-(2′,6′-difluoro[1,1′-biphenyl]-2-yl)cyclopropane-1-carbonyl]-4-methylpiperidin-3-yl}methanesulfonamide and rac-N-{(3S,4S)-1-[(1R,2R)-2-(2′,6′-difluoro[1,1′-biphenyl]-2-yl)cyclopropane-1-carbonyl]-4-methylpiperidin-3-yl}methanesulfonamide]	57
C[C@@H]1C[C@H](NS(C)(=O)=O)CN1C(=O)[C@@H]1C[C@H]1c1ccccc1-c1c(F)cccc1F [Example 263, N-{(3S,5R)-1-[(1R,2R)-2-(2′,6′-difluoro[1,1′-biphenyl]-2-yl)cyclopropane-1-carbonyl]-5-methylpyrrolidin-3-yl}methanesulfonamide]	98

More lines, now with the values ahead:

OX2R agonist activity (3 μM, %) [%]	SMILES
96	CS(=O)(=O)NC[C@@H]1CCN1C(=O)[C@@H]1C[C@@]1(F)c1ccccc1-c1c(F)cccc1F [Example 352, N-({(2S)-1-[(1S,2S)-2-(2′,6′-difluoro[1,1′-biphenyl]-2-yl)-2-fluorocyclopropane-1-carbonyl]azetidin-2-yl}methyl)methanesulfonamide]
99	C[C@H](NS(=O)(=O)C1CC1)[C@@H]1CCN1C(=O)[C@@H]1C[C@@]1(F)c1ccccc1-c1c(F)cccc1F [Example 387, N-[(1S)-1-{(2S)-1-[(1S,2S)-2-(2′,6′-difluoro[1,1′-biphenyl]-2-yl)-2-fluorocyclopropane-1-carbonyl]azetidin-2-yl}ethyl]cyclopropanesulfonamide]
99	C[C@@H]1CN(C(=O)C2CC2(F)c2c(F)cccc2-c2c(F)cccc2F)[C@@H]1CNS(C)(=O)=O (stereo partly drawn) [Example 395, N-({(2S,3R)-1-[(1R,2R)-2-fluoro-2-(2′,3,6′-trifluoro[1,1′-biphenyl]-2-yl)cyclopropane-1-carbonyl]-3-methylazetidin-2-yl}methyl)methanesulfonamide, or N-({(2S,3R)-1-[(1S,2S)-2-fluoro-2-(2′,3,6′-trifluoro[1,1′-biphenyl]-2-yl)cyclopropane-1-carbonyl]-3-methylazetidin-2-yl}methyl)methanesulfonamide]
79	CC(NS(C)(=O)=O)[C@@H]1[C@H](C)CN1C(=O)[C@@H]1C[C@@]1(F)c1ccccc1-c1c(F)cccc1F (stereo partly drawn) [Example 401, N-[(1R)-1-{(2S,3R)-1-[(1S,2S)-2-(2′,6′-difluoro[1,1′-biphenyl]-2-yl)-2-fluorocyclopropane-1-carbonyl]-3-methylazetidin-2-yl}ethyl]methanesulfonamide, or N-[(1S)-1-{(2S,3R)-1-[(1S,2S)-2-(2′,6′-difluoro[1,1′-biphenyl]-2-yl)-2-fluorocyclopropane-1-carbonyl]-3-methylazetidin-2-yl}ethyl]methanesulfonamide]
99	CS(=O)(=O)NC[C@H]1[C@H](CF)CN1C(=O)[C@@H]1C[C@@]1(F)c1ccccc1-c1c(F)cccc1F [Example 400, N-{[(2R,3R)-1-[(1S,2S)-2-(2′,6′-difluoro[1,1′-biphenyl]-2-yl)-2-fluorocyclopropane-1-carbonyl]-3-(fluoromethyl)azetidin-2-yl]methyl}methanesulfonamide]
